Assay results reported in ChEMBL document CHEMBL4742401, “Cyclin-dependent kinase inhibitors and methods of use” (2019).
pIC50: −log10 of the molar value.

Molecular target: T1, Cyclin-dependent kinase 8 (Homo sapiens, UniProt P49336)
Assay: Inhibition of CDK8 in human HepG2 cells assessed as reduction in IFNgamma-induced STATl S727 phosphorylation incubated for 18 hrs by Western blot analysis
Type: cell-based

T1 sequence (P49336 whole entry): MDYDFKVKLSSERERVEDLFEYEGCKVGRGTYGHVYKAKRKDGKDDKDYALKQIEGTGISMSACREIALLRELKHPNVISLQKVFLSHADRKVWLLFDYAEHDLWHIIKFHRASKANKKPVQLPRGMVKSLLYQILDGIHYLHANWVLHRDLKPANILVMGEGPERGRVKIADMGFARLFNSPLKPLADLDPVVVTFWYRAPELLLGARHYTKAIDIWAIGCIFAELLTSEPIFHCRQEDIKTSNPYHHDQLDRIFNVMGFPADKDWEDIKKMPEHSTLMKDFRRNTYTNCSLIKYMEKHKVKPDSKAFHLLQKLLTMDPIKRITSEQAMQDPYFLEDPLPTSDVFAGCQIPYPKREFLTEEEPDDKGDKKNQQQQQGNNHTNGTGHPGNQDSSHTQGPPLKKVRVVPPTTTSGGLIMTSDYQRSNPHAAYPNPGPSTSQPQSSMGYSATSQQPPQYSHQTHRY

Compound | inhibition
CN(C)[C@H]1CC[C@@]2(C)C(=CC[C@H]3[C@@H]4CC[C@H](c5ccc6ccncc6c5)[C@@]4(C)CC[C@@H]32)C1 | Dose-dependent effect

Molecular target: T1, Cyclin-dependent kinase 8
Assay: Inhibition of CDK8 (unknown origin) by competitive kinase binding based Lantha-screen Eu kinase binding assay

Compound | pIC50
C[C@]12CC[C@H](O)C[C@@H]1CC[C@@H]1[C@@H]2CC[C@]2(C)[C@@H](c3ccc4ccncc4c3)CC[C@@H]12 | 6.70
CN(C)[C@@H]1CC[C@@]2(C)[C@@H](CC[C@@H]3[C@@H]2CC[C@]2(C)C(c4ccc5ccncc5c4)=CC[C@@H]32)C1 | 6.70
C[C@]12CC[C@H]3[C@@H](CC=C4C[C@@H](O)CC[C@@]43C)[C@@H]1CC[C@@H]2c1ccc2ccncc2c1 | ≥ 7.00
C[C@]12CC[C@H]3[C@@H](CC=C4C[C@@H](O)CC[C@@]43C)[C@@H]1CC[C@@H]2c1ccc2[nH]ncc2c1 | ≤ 5.22
C[C@]12CC[C@H]3[C@@H](CC=C4C[C@@H](O)CC[C@@]43C)[C@@H]1CC[C@@H]2c1ccc2nc(N)ncc2c1 | 7.00
C[C@]12CC[C@H]3[C@@H](CC=C4C[C@@H](O)CC[C@@]43C)[C@@H]1CC[C@@H]2c1ccc2c(N)n[nH]c2c1 | 6.52
CN(C)[C@H]1CC[C@@]2(C)[C@@H](CC[C@@H]3[C@@H]2CC[C@]2(C)[C@@H](c4ccc5ccncc5c4)CC[C@@H]32)C1 | ≥ 7.00
C[C@]12CC[C@H](O)CC1=CC[C@@H]1[C@@H]2CC[C@]2(C)C(c3ccc4cnncc4c3)=CC[C@@H]12 | ≤ 5.22
CN[C@H]1CC[C@@]2(C)[C@@H](CC[C@@H]3[C@@H]2CC[C@]2(C)[C@@H](c4ccc5ccncc5c4)CC[C@@H]32)C1 | 6.15
C[C@]12CC[C@H]3[C@@H](CC=C4C[C@@H](O)CC[C@@]43C)[C@@H]1CC[C@@H]2c1ccc2cnccc2c1 | 5.70
C[C@]12CC[C@H](O)CC1=CC[C@@H]1[C@@H]2CC[C@]2(C)C(c3ccc4c(N)n[nH]c4c3)=CC[C@@H]12 | 6.15
C[C@]12CC[C@H](O)CC1=CC[C@@H]1[C@@H]2CC[C@]2(C)C(c3ccc4cnccc4c3)=CC[C@@H]12 | ≤ 5.22
CN(C)[C@@H]1CC[C@@]2(C)[C@@H](CC[C@@H]3[C@@H]2CC[C@]2(C)[C@@H](c4ccc5ccncc5c4)CC[C@@H]32)C1 | ≥ 7.00
CC(=O)N(C)[C@H]1CC[C@@]2(C)[C@@H](CC[C@@H]3[C@@H]2CC[C@]2(C)[C@@H](c4ccc5ccncc5c4)CC[C@@H]32)C1 | ≥ 7.00
C[C@]12CC[C@H](O)CC1=CC[C@@H]1[C@@H]2CC[C@]2(C)C(c3ccc4nc(N)ncc4c3)=CC[C@@H]12 | 5.70
C[C@]12CC[C@H](N3CCOCC3)C[C@@H]1CC[C@@H]1[C@@H]2CC[C@]2(C)[C@@H](c3ccc4ccncc4c3)CC[C@@H]12 | 7.00
C[C@]12CC[C@H]3[C@@H](CC=C4C[C@@H](O)CC[C@@]43C)[C@@H]1CC[C@@H]2c1ccc2cnncc2c1 | ≤ 5.22
C[C@]12CC[C@H](n3ccnn3)C[C@@H]1CC[C@@H]1[C@@H]2CC[C@]2(C)[C@@H](c3ccc4ccncc4c3)CC[C@@H]12 | ≥ 7.00
C[C@]12CC[C@H](O)C[C@@H]1CC[C@@H]1[C@@H]2CC[C@]2(C)C(c3ccc4ccncc4c3)=CC[C@@H]12 | 6.15
C[C@]12CC[C@H](O)CC1=CC[C@@H]1[C@@H]2CC[C@]2(C)C(c3ccc4cn[nH]c4c3)=CC[C@@H]12 | ≤ 5.22
C[C@]12CC[C@H]3[C@@H](CC=C4C[C@@H](O)CC[C@@]43C)[C@@H]1CC[C@@H]2c1ccc2cn[nH]c2c1 | ≤ 5.22
CN(C)[C@H]1CC[C@@]2(C)[C@@H](CC[C@@H]3[C@@H]2CC[C@]2(C)C(c4ccc5ccncc5c4)=CC[C@@H]32)C1 | 7.00
CN(C)[C@H]1CC[C@@]2(C)C(=CC[C@H]3[C@@H]4CC[C@H](c5ccc6ccncc6c5)[C@@]4(C)CC[C@@H]32)C1 | ≥ 7.00
C[C@]12CC[C@H](O)CC1=CC[C@@H]1[C@@H]2CC[C@]2(C)C(c3ccc4ccncc4c3)=CC[C@@H]12 | 7.00
C[C@]12CC[C@H](O)CC1=CC[C@@H]1[C@@H]2CC[C@]2(C)C(c3ccc4[nH]ncc4c3)=CC[C@@H]12 | ≤ 5.22

Molecular target: T2, Serine/threonine-protein kinase Nek1 (Homo sapiens, UniProt Q96PY6)
T2 sequence (Q96PY6 whole entry): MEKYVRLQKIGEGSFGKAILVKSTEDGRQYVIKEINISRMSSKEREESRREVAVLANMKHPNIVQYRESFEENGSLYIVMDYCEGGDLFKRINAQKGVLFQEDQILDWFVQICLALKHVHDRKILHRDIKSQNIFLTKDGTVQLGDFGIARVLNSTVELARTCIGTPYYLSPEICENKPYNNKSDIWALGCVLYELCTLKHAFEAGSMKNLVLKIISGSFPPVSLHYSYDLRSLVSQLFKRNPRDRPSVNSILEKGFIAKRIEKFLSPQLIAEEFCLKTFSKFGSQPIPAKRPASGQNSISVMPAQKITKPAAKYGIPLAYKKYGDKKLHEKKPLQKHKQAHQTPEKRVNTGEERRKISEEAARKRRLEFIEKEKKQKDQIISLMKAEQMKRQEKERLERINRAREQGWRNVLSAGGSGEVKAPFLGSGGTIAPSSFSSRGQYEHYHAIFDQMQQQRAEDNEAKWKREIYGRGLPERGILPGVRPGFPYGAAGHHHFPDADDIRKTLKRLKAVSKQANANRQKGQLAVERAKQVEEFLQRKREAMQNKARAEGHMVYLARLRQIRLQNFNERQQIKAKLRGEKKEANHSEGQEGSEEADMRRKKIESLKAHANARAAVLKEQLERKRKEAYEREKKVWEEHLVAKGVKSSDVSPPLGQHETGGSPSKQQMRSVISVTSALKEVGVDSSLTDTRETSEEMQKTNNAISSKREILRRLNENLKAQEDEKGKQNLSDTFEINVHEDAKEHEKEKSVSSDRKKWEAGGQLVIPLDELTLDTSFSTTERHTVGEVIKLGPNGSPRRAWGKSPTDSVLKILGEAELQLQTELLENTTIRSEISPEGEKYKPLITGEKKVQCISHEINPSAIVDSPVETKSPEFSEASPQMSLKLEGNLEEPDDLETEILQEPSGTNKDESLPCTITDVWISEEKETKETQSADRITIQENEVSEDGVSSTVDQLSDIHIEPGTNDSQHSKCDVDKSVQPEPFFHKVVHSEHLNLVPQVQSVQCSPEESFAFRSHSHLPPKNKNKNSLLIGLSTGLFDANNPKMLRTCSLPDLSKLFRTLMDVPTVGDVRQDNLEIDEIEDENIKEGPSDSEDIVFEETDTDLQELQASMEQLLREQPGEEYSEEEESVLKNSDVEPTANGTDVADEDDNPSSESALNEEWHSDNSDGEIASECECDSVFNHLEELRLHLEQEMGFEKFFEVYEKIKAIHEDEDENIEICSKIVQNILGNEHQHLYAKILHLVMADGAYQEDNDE
Assay: Inhibition of NEK1 (unknown origin)

Compound | pIC50
CN(C)[C@H]1CC[C@@]2(C)C(=CC[C@H]3[C@@H]4CC[C@H](c5ccc6ccncc6c5)[C@@]4(C)CC[C@@H]32)C1 | < 5.00
